In patent US20240190880A1 (THE REGENTS OF THE UNIVERSITY OF MICHIGAN, priority 2021, published 2024):

target: T1, ER (Homo sapiens, UniProt P03372); assay: ER degradation activity, in-cell western blot analysis in T47D cells; type: cell-based; conditions: 16 hours, Table A does not say which cell line (T47D or MCF7), read-out: Potency (DC50)
T1 construct: host or cells: T47D and MCF7 human breast cancer cells
T1 sequence (P03372 1-595): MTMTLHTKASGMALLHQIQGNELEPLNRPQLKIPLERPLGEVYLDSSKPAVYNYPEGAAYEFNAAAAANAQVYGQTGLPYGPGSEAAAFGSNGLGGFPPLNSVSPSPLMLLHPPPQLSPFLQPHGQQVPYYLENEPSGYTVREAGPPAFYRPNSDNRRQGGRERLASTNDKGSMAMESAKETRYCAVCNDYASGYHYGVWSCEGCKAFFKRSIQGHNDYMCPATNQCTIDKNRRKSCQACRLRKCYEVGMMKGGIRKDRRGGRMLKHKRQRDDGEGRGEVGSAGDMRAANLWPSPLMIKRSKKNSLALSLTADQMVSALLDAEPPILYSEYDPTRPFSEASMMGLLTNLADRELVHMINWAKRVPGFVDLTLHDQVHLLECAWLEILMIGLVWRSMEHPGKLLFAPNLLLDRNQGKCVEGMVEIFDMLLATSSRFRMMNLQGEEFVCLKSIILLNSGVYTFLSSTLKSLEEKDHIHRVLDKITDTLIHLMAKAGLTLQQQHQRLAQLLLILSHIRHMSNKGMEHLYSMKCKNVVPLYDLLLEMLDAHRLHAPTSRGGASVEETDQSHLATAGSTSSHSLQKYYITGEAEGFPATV
In short: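 ER protein remaining after 16 h compound exposure is quantified in T47D cells by in-cell western, with a no-primary-antibody background control. Values are percentages of DMSO-treated signal.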

| Structure (SMILES) | DC50 [nM] |
| --- | --- |
| C[C@@H]1Cc2cc(O)ccc2[C@@H](c2c(F)cc(N3CCC4(CC3)CN(C(=O)CN3Cc5cc6c(cc5C3)C(=O)N(C3CCC(=O)NC3=O)C6=O)C4)cc2F)N1CC(F)F (stereo partly drawn) [E 41, 6-(2-(7-(4-((1S,3R)-2-(2,2-difluoroethyl)-6-hydroxy-3-methyl-1,2,3,4-tetrahydroisoquinolin-1-yl)-3,5-difluorophenyl)-2,7-diazaspiro[3.5]nonan-2-yl)-2-oxoethyl)-2-(2,6-dioxopiperidin-3-yl)-6,7-dihydropyrrolo[3,4-f]isoindole-1,3(2H,5H)-dione] | < 10 |
| C[C@@H]1Cc2cc(O)ccc2[C@@H](c2c(F)cc(N3CC4(CN(C(=O)CN5Cc6cc7c(cc6C5)C(=O)N(C5CCC(=O)NC5=O)C7=O)C4)C3)cc2F)N1CC(F)F (stereo partly drawn) [E 42, 6-(2-(6-(4-((1S,3R)-2-(2,2-difluoroethyl)-6-hydroxy-3-methyl-1,2,3,4-tetrahydroisoquinolin-1-yl)-3,5-difluorophenyl)-2,6-diazaspiro[3.3]heptan-2-yl)-2-oxoethyl)-2-(2,6-dioxopiperidin-3-yl)-6,7-dihydropyrrolo[3,4-f]isoindole-1,3(2H,5H)-dione] | < 10 |
| C[C@@H]1Cc2cc(O)ccc2[C@@H](c2c(F)cc(N3CC4(CCN(C(=O)CN5Cc6cc7c(cc6C5)C(=O)N(C5CCC(=O)NC5=O)C7=O)C4)C3)cc2F)N1CC(F)F (stereo partly drawn) [E 43, 6-(2-(2-(4-((1S,3R)-2-(2,2-difluoroethyl)-6-hydroxy-3-methyl-1,2,3,4-tetrahydroisoquinolin-1-yl)-3,5-difluorophenyl)-2,6-diazaspiro[3.4]octan-6-yl)-2-oxoethyl)-2-(2,6-dioxopiperidin-3-yl)-6,7-dihydropyrrolo[3,4-f]isoindole-1,3(2H,5H)-dione] | < 10 |
| C[C@@H]1Cc2cc(O)ccc2[C@@H](c2c(F)cc(N3CCC4(CN(C(=O)CN5Cc6cc7c(cc6C5)C(=O)N(C5CCC(=O)NC5=O)C7=O)C4)C3)cc2F)N1CC(F)F (stereo partly drawn) [E 44, 6-(2-(6-(4-((1S,3R)-2-(2,2-difluoroethyl)-6-hydroxy-3-methyl-1,2,3,4-tetrahydroisoquinolin-1-yl)-3,5-difluorophenyl)-2,6-diazaspiro[3.4]octan-2-yl)-2-oxoethyl)-2-(2,6-dioxopiperidin-3-yl)-6,7-dihydropyrrolo[3,4-f]isoindole-1,3(2H,5H)-dione] | 10 to 100 |
| C[C@@H]1Cc2cc(O)ccc2[C@@H](c2c(F)cc(N3CC4(CCN(C(=O)CN5Cc6cc7c(cc6C5)C(=O)N(C5CCC(=O)NC5=O)C7=O)CC4)C3)cc2F)N1CC(F)F (stereo partly drawn) [E 45, 6-(2-(2-(4-((1S,3R)-2-(2,2-difluoroethyl)-6-hydroxy-3-methyl-1,2,3,4-tetrahydroisoquinolin-1-yl)-3,5-difluorophenyl)-2,7-diazaspiro[3.5]nonan-7-yl)-2-oxoethyl)-2-(2,6-dioxopiperidin-3-yl)-6,7-dihydropyrrolo[3,4-f]isoindole-1,3(2H,5H)-dione] | < 10 |
| C[C@@H]1Cc2cc(O)ccc2[C@@H](c2c(F)cc(N3CCC(N4CC(CN5Cc6cc7c(cc6C5)C(=O)N(C5CCC(=O)NC5=O)C7=O)C4)CC3)cc2F)N1CC(F)F (stereo partly drawn) [E 46, 6-((1-(1-(4-((1S,3R)-2-(2,2-difluoroethyl)-6-hydroxy-3-methyl-1,2,3,4-tetrahydroisoquinolin-1-yl)-3,5-difluorophenyl)piperidin-4-yl)azetidin-3-yl)methyl)-2-(2,6-dioxopiperidin-3-yl)-6,7-dihydropyrrolo[3,4-f]isoindole-1,3(2H,5H)-dione] | > 100 |
| C[C@@H]1Cc2cc(O)ccc2[C@@H](c2c(F)cc(N3CCC(CN4CC(N5Cc6cc7c(cc6C5)C(=O)N(C5CCC(=O)NC5=O)C7=O)C4)CC3)cc2F)N1CC(F)F (stereo partly drawn) [E 47, 6-(1-((1-(4-((1S,3R)-2-(2,2-difluoroethyl)-6-hydroxy-3-methyl-1,2,3,4-tetrahydroisoquinolin-1-yl)-3,5-difluorophenyl)piperidin-4-yl)methyl)azetidin-3-yl)-2-(2,6-dioxopiperidin-3-yl)-6,7-dihydropyrrolo[3,4-f]isoindole-1,3(2H,5H)-dione] | > 100 |
